{"source": "patent US20180153848A1", "about": "“CABAZITAXEL FAT EMULSION, AND PREPARATION METHOD AND USE THEREOF” (JIANGSU TASLY DIYI PHARMACEUTICAL CO., LTD., priority 2015, published 2018)", "key": {"Beagle dogs": {"tested_on": "Beagle dogs", "conditions": "intravenous injection of 0.3% or 0.35% Tween-80; cited from earlier work"}, "[1]": {"conditions": "cited from earlier work"}, "[2]": {"experiment": "Investigation on the solubility of cabazitaxel in oils for injection, with low temperature challenge test", "type": "physicochemical", "parameters": "key to dissolved state in oil for injection: —: Completely insoluble", "conditions": "for dissolved state in oil for injection: 70° C. with stirring", "method": "In this Test Example, appropriate amounts of cabazitaxel were weighed, respectively placed into medium chain triglyceride for injection, soybean oil, olive oil, castor oil and palm oil at 70° C., and heated with stirring, to observe the dissolved state thereof. The solutions with the drug dissolved were stored at a condition of 4-6° C. for 72 hours, to perform a low temperature challenge test. The appearance changes of the solutions at 72 hours in the low temperature storage were observed."}}}
{"compound": "Tween-80", "values": [{"measurement": "grade of allergic reactions", "setting": "Beagle dogs", "result": "≥ 3"}]}
{"compound": "CO[C@H]1C(=O)[C@]2(C)[C@@H](OC)C[C@H]3OC[C@@]3(OC(C)=O)[C@H]2[C@H](OC(=O)c2ccccc2)[C@]2(O)C[C@H](OC(=O)[C@H](O)[C@@H](NC(=O)OC(C)(C)C)c3ccccc3)C(C)=C1C2(C)C", "note": "[cabazitaxel, 4-acetyloxy-2α-benzoyloxy-5β,20-epoxy-1-hydroxy-7β, 10β-dimethoxy-9-oxotax-11-en-13 α-yl(2R,3S)-3-t-butoxycarbonylamino-2-hydroxy-3-phenylpropionate]", "values": [{"measurement": "solubility in ethanol and other organic solvents", "setting": "[1]", "result": "soluble"}, {"measurement": "solubility in water", "setting": "[1]", "result": "almost insoluble"}, {"measurement": "solubility in medium chain triglycerides", "setting": "[2]", "result": "about 50 mg/g"}, {"measurement": "solubility in medium chain triglyceride for injection", "setting": "[2]; after storage at low temperature (4-6° C.) for 72 h", "result": "about 50 mg/g"}, {"measurement": "dissolved state in oil for injection", "setting": "[2]; castor oil, Concentration (mg/g) 10 h", "result": "cannot be fully dissolved"}, {"measurement": "dissolved state in oil for injection", "setting": "[2]; castor oil, Concentration (mg/g) 20 h", "result": "—"}, {"measurement": "dissolved state in oil for injection", "setting": "[2]; castor oil, Concentration (mg/g) 30 h", "result": "—"}, {"measurement": "dissolved state in oil for injection", "setting": "[2]; castor oil, Concentration (mg/g) 40 h", "result": "—"}, {"measurement": "dissolved state in oil for injection", "setting": "[2]; castor oil, Concentration (mg/g) 50 h", "result": "—"}, {"measurement": "dissolved state in oil for injection", "setting": "[2]; castor oil, Concentration (mg/g) 60 h", "result": "—"}, {"measurement": "solubility in long chain oils", "setting": "[2]; long chain oils such as soybean oil, olive oil, castor oil, palm oil", "result": "less than 10 mg/g"}, {"measurement": "dissolved state in oil for injection", "setting": "[2]; medium chain triglyceride, Concentration (mg/g) 60 h", "result": "rapidly dissolved"}, {"measurement": "dissolved state in oil for injection", "setting": "[2]; olive oil, Concentration (mg/g) 10 h", "result": "cannot be fully dissolved"}, {"measurement": "dissolved state in oil for injection", "setting": "[2]; olive oil, Concentration (mg/g) 20 h", "result": "—"}, {"measurement": "dissolved state in oil for injection", "setting": "[2]; olive oil, Concentration (mg/g) 30 h", "result": "—"}, {"measurement": "dissolved state in oil for injection", "setting": "[2]; olive oil, Concentration (mg/g) 40 h", "result": "—"}, {"measurement": "dissolved state in oil for injection", "setting": "[2]; olive oil, Concentration (mg/g) 50 h", "result": "—"}, {"measurement": "dissolved state in oil for injection", "setting": "[2]; olive oil, Concentration (mg/g) 60 h", "result": "—"}, {"measurement": "dissolved state in oil for injection", "setting": "[2]; palm oil, Concentration (mg/g) 10 h", "result": "cannot be fully dissolved"}, {"measurement": "dissolved state in oil for injection", "setting": "[2]; palm oil, Concentration (mg/g) 20 h", "result": "—"}, {"measurement": "dissolved state in oil for injection", "setting": "[2]; palm oil, Concentration (mg/g) 30 h", "result": "—"}, {"measurement": "dissolved state in oil for injection", "setting": "[2]; palm oil, Concentration (mg/g) 40 h", "result": "—"}, {"measurement": "dissolved state in oil for injection", "setting": "[2]; palm oil, Concentration (mg/g) 50 h", "result": "—"}, {"measurement": "dissolved state in oil for injection", "setting": "[2]; palm oil, Concentration (mg/g) 60 h", "result": "—"}, {"measurement": "dissolved state in oil for injection", "setting": "[2]; soybean oil, Concentration (mg/g) 10 h", "result": "cannot be fully dissolved"}, {"measurement": "dissolved state in oil for injection", "setting": "[2]; soybean oil, Concentration (mg/g) 20 h", "result": "—"}, {"measurement": "dissolved state in oil for injection", "setting": "[2]; soybean oil, Concentration (mg/g) 30 h", "result": "—"}, {"measurement": "dissolved state in oil for injection", "setting": "[2]; soybean oil, Concentration (mg/g) 40 h", "result": "—"}, {"measurement": "dissolved state in oil for injection", "setting": "[2]; soybean oil, Concentration (mg/g) 50 h", "result": "—"}, {"measurement": "dissolved state in oil for injection", "setting": "[2]; soybean oil, Concentration (mg/g) 60 h", "result": "—"}]}
